Structures are written as SMILES.

For the compound `O=c1c(-c2cccs2)nc2ccccc2n1CC1CCCO1` (centres unmarked), the melting point (as a rule, the temperature, or range, at which the solid turns liquid) came to 123 °C.

Compound `O=c1[nH]c2cc3c(cc2nc1-c1ccccc1)OC(F)(F)O3` showed a melting point of 291 to 292 °C.

Regarding `Cn1c(=O)c(-c2ccccc2)nc2cc3c(cc21)OC(F)(F)O3`, the melting point is 165 °C.

`O=c1c(-c2cccs2)nc2ccccc2n1CC1CCC1`: the melting point was determined as 103 °C.

With `Cn1c(=S)c(-c2cccs2)nc2ccccc21`, the melting point was determined as 113 °C.

`Cl.NCCn1c(=O)c(-c2cccs2)nc2ccccc21` registered a melting point of over 250 °C.

In the case of `CS(=O)(=O)NCCn1c(=O)c(-c2cccs2)nc2ccccc21`, the melting point was in the range of 236 to 237 °C.

For `Nn1c(=O)c(-c2cccs2)nc2ccccc21`, the melting point worked out at 164 °C.

(Values after patent publication US20110143939A1, “QUINOXALIN-2-ONE DERIVATIVES, COMPOSITIONS WHICH PROTECT USEFUL PLANTS AND COMPRISE THESE DERIVATIVES, AND PROCESSES FOR THEIR PREPARATION AND THEIR USE” (Bayer CropScience AG, priority 2004, published 2011).)
